Source: ChEMBL document CHEMBL4000201, “Benzylideneoxymorphone: A new lead for development of bifunctional mu/delta opioid receptor ligands” (Bioorg Med Chem Lett, 2017)

Tests used:
[1] = biological target: Mu-type opioid receptor (Homo sapiens, UniProt P35372); assay: Displacement of [3H]DAMGO from human MOR expressed in CHO cells; type: cell-based
[2] = biological target: Delta-type opioid receptor (Homo sapiens, UniProt P41143); assay: Displacement of [3H]DPDPE from human DOR expressed in CHO cells; type: cell-based
[3] = tested on: Mus musculus; assay: Antinociceptive activity in Swiss-Webster mouse assessed as maximum possible effect at 20 to 60 mg/kg, sc after 30 mins measured every 20 mins for 90 mins by hot plate test; type: functional
[4] = tested on: Mus musculus; assay: Antinociceptive activity in Swiss-Webster mouse assessed as time required for peak effect at 60 mg/kg, sc after 30 mins measured every 20 mins for 90 mins by hot plate test; type: functional
[5] = Displacement of [3H]DPDPE from DOR in guinea pig brain membranes measured after 60 mins by scintillation counting method; type: cell membranes, Cavia porcellus, Membrane

Chain of Delta-type opioid receptor (P41143 whole entry): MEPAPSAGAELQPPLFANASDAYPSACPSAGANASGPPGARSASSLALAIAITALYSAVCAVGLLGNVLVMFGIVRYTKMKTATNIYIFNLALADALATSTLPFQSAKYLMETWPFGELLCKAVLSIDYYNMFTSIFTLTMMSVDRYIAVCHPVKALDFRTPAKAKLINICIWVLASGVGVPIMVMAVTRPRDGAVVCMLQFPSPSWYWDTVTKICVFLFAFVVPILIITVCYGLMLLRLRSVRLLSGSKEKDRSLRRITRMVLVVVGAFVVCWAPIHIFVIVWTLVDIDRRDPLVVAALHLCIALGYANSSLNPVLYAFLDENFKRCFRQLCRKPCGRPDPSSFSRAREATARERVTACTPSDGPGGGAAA
Chain of Mu-type opioid receptor (P35372 whole entry): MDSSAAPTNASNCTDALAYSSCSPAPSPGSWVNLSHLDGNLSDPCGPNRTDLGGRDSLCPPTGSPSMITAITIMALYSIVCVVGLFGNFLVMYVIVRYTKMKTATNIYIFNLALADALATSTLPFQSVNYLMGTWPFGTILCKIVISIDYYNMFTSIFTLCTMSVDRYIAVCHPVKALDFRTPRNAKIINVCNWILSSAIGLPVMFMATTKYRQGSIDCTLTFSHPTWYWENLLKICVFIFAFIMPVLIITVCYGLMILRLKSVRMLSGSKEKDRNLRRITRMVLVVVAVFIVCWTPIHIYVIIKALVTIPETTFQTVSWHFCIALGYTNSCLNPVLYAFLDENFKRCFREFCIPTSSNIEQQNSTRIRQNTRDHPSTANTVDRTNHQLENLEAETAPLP

Row | Compound | Ki [1] | Ki [2] | MPE [3] | Time [4] | Ki [5]
1 | O=C1/C(=C/c2ccccc2)C[C@@]2(O)[C@H]3Cc4ccc(O)c5c4[C@@]2(CCN3CCCc2ccccc2)[C@H]1O5 | 313 nM | 168 nM | – | – | –
2 | CN1CC[C@]23c4c5ccc(O)c4O[C@H]2C(=O)/C(=C/c2ccccc2)C[C@@]3(O)[C@H]1C5 | 17.5 nM | 14.4 nM | 40% | 50 min | –
3 | O=C1/C(=C/c2ccccc2)C[C@@]2(O)[C@H]3Cc4ccc(O)c5c4[C@@]2(CCN3CC2CC2)[C@H]1O5 [BNTX] | – | – | – | – | 6.2 nM
